Data published in US20080317700A1 (priority 2006, published 2008).
Marks after values point to notes of the source that are not given here.

What was measured:
E. Coli = E. Coli agar experiments (colony count); format: cell-based; conditions: M9 agar, 1 mM herbicide, 37° C., 24 hours; controls 36 colonies
Description: A M9 minimum medium containing 1.5 wt. % agar was prepared and sterilized at 121° C., 1.05 kg cm^−2 for 20 min. An aliquot of each tested herbicide solution was added to portions of the autoclaved agar to give a 1 mM final concentration of the herbicide. Twenty mL of the liquid agar was poured into a standard Petri dish and allowed to harden at room temperature. E. Coli cell suspensions were inoculated using a sterile inoculation loop and stored at 37° C. for 24 hours. Control and treated cultures were grown under the same conditions. In each experiment, the inhibition of growth in treated cultures was monitored relative to growth in control samples by manually counting the number of colonies.

[1] = tested on: cyanobacteria Synechococcus 7002; assay: Liquid culture growth inhibition (optical density), salt water cyanobacteria; format: cell-based; conditions: Synechococcus 7002, BG-11 liquid medium, 1 mM herbicide, 7 days; control 0.72
Description: (§1) Strains of green algae, cyanobacteria and E. Coli were used as test organisms. The green algae CD 1 Red and cyanobacteria Synechocystos 6803 were obtained from the collection of Prof. George Bullerjahn. Salt water strain of cyanobacteria Synechococcus 7002 was obtained from the collection of Prof. Michael McKay. E Coli DH 5α was obtained from Invitrogen Inc.
Green algae and cyanobacteria were propagated photoautotrophically in 250 mL Erlenmeyer flasks containing 100 mL of liquid BG-11 culture medium (see Supporting Information). The cultures were kept on a rotating shaker (100 rpm) at 25° C. for 4 days and continuously illuminated with cool-white fluorescent light with a constant light intensity of 5000 lux. The grown culture medium was sterilized in an autoclave at 121° C. and 1.05 kg cm^−2 pressure for 20 min. For the cell experiments, 20 mL aliquots of the BG-11 medium containing the green algal ([cells]initial=5.9×10^7 mL^−1) or cyanobacteria cells ([cells]initial=1.7×10^9 mL^−1) were placed in sterile 50 mL Erlenmeyer flasks. CD 1 Red, Synechocystos 6803 and Synechococcus 7002 were then treated with an aliquot of a stock herbicide solution to bring the final herbicide concentration to 1 mM and incubated for 7 days on a rotator shaker (100 rpm) at 25° C. and continuous light intensity of 5000 lux. Cell counts were correlated with the absorbance and measured as a function of time using a Spectronic 20 Genesis spectrophotometer. As previously reported by Ma et al., 5 the optimal wavelength for monitoring culture growth is 680 nm. Experiments for each herbicide were repeated three times. Control and treated cultures were grown under the same conditions of temperature, photoperiod, and agitation. In each experiment, the inhibition of cell growth in treated cultures was monitored spectrophotometrically and compared to the growth in control samples.

green algae CD 1 Red = assay: Liquid culture growth inhibition (optical density), green algae; format: cell-based; conditions: CD1 Red, BG-11 liquid medium, 1 mM herbicide, control 0.55
Description: as §1
(§2) Green algae and cyanobacteria were propagated photoautotrophically in 250 mL Erlenmeyer flasks containing 100 mL of liquid BG-11 culture medium (see Supporting Information). The cultures were kept on a rotating shaker (100 rpm) at 25° C. for 4 days and continuously illuminated with cool-white fluorescent light with a constant light intensity of 5000 lux. The grown culture medium was sterilized in an autoclave at 121° C. and 1.05 kg cm^−2 pressure for 20 min. For the cell experiments, 20 mL aliquots of the BG-11 medium containing the green algal ([cells]initial=5.9×10^7 mL^−1) or cyanobacteria cells ([cells]initial=1.7×10^9 mL^−1) were placed in sterile 50 mL Erlenmeyer flasks. […] Cell counts were correlated with the absorbance and measured as a function of time using a Spectronic 20 Genesis spectrophotometer. […] In each experiment, the inhibition of cell growth in treated cultures was monitored spectrophotometrically and compared to the growth in control samples.

Solubility (qualitative) = format: physicochemical
[2] = tested on: cyanobacteria Synechocystos 6803; assay: Liquid culture growth inhibition (optical density), fresh water cyanobacteria; format: cell-based; conditions: Synechocystos 6803, BG-11 liquid medium, 1 mM herbicide, control 1.4
Description: as §1, §2

E Coli DH 5α = assay: Liquid culture growth inhibition (optical density), E. Coli; format: cell-based; conditions: for Optical Density at 680 nm, measurements taken after 24 hours of growth: E. Coli, M9 minimum medium, 30 mM herbicide, control 1.30; for Toxicity towards E. Coli (liquid culture): inhibition only during first 10 hours, beyond 24 hours optical density matched controls
Description: as §1
E. Coli was propagated heterotrophically in a 2 mL Eppendorf test-tube containing 1.5 mL of liquid M9 minimum medium (see Supporting Information) and kept on a rotating shaker (100 rpm) at 37° C. for 12 hours. The grown culture medium was sterilized at 121° C., 1.05 kg cm^−2 for 20 min. For the cell experiments, 100 mL aliquots of the M9 medium containing the E. Coli cells ([cells]initial=6×10^5 mL^−1) were distributed into sterile 250 mL Erlenmeyer flasks and treated with a stock herbicide solution to obtain a final concentration of 30 mM, followed by an incubation for 24 h on a rotating shaker (100 rpm) at 37° C. […] Control and treated cultures were grown under the same conditions of temperature and shaking. In each experiment, the inhibition of growth in treated cultures was monitored spectrophotometrically and compared to the growth in control samples.

SMILES	Number of E. Coli colonies (E. Coli) [colonies]	Optical Density at 680 nm after 7 days of media growth [1]	Optical Density at 680 nm after 7 days of media growth (green algae CD 1 Red)	Solubility in organic solvents (Solubility (qualitative))	Solubility in water (Solubility (qualitative))	Optical Density at 680 nm after 7 days of media growth [2]	Optical Density at 680 nm, measurements taken after 24 hours of growth (E Coli DH 5α)	Toxicity towards E. Coli (liquid culture) (E Coli DH 5α)
C=CC(=O)N(CC(=O)O)CP(=O)(O)O [AA, N-Acryloyl-N-(phosphonomethyl)glycine]	6	0.07	0.02	poorly soluble in most organic solvents	soluble in water	0.54	1.24^c	do not display reasonable toxicity
O=C(O)CNCP(=O)(O)O [Glyphosate, N-(Phosphonomethyl)glycine, reference compound]	11	0.04	0.02	poor solubility in organic solvents	–	0.58	1.20^c	do not display reasonable toxicity
